These results are taken from paper PMC8637440, “Structural Modifications Yield Novel Insights Into the Intriguing Pharmacodynamic Potential of Anti-inflammatory Nitro-Fatty Acids” (Frontiers in Pharmacology, 2021).

In one test the test system is COX-2 expression. The experiment in a line: COX-2 expression in A549 cells (Western blot). It counts as cell-based, human. The settings on record: 24 h; for COX-2 expression in IL-1β-stimulated A549 cells: 10 µM. The method, then:
Cytoplasmic and nuclear extracts (100 µg each) and 30 µg whole-cell lysates were diluted in 5× Laemmli loading dye and denatured for 10 min at 95°C, loaded on a 10% SDS polyacrylamide gel, and separated by gel electrophoresis for 15 min at 80 V followed by 60 min at 120 V. The separated proteins were blotted onto a nitrocellulose membrane (Hybond-C Extra, Amersham Biosciences Ltd., UK) using the Mini Trans-Blot® module (Bio-Rad, Hercules, California, United States) for 90 min at 90 V. The membrane was blocked with Odyssey blocking buffer (Li-Cor Biosciences, Bad Homburg, Germany) or 5% milk powder in TBS-T (Tris Buffered Saline with 0.1% Tween) for 1 h at room temperature (RT). The membranes were incubated with the primary antibodies overnight at 4°C, and then with the secondary antibodies for 1 h at RT. The primary antibodies were diluted 1:1,000 and the secondary antibodies were diluted 1:10,000 to 1:20,000. […] Upon detection, the membrane was washed three times with 1× PBS-T (Phosphate-Buffered Saline with 0.1% Tween) or TBS-T and finally once with 1× PBS or TBS before the protein–antibody interaction was visualized on an Odyssey Infrared Imaging System (Li-Cor Biosciences) at 700 nm or 800 nm depending on the fluorophore of the secondary antibody.
Suppl. Figure 6: Effects of NFA on cellular COX-2 expression. Representative Western Blot of A549 cells treated with (A) NFA with different carbon chain length and (B) different Michael acceptor position for 24 h without IL-1 β stimulation (1 ng/ml) and the densitometrical evaluation of n=4-5 experiments (C, D). Representative Western Blot of A549 cells stimulated with IL-1 β and subsequent treatment with (E) NFA with different carbon chain length and (F) different Michael acceptor position for 24 h and the densitometrical evaluation of n=4-5 experiments (G, H). Intracellular COX-2 levels were normalized to β-actin and presented as mean + SD. Statistical significance was calculated by one-way ANOVA with Bonferroni post-test. P-values of **** P ≦0.0001, **P ≦0.0021, and *P ≦0.03 are considered significant. COX, cyclooxygenase; DMSO , dimethyl sulfoxide; NFA, nitro fatty acids
(1 picture or pasted object on this page, not shown here)
A general note: Immunoblotting shows a protein as a band on a membrane.

A further test has as its system NF-κB p65. Briefly: NF-κB p65 transcription factor ELISA in TNFα-stimulated HCT-116 cells. In kind it is cell-based. The settings on record: Homo sapiens; 10 µM, 14 h preincubation, then 10 ng/ml TNF-α 4 h, HCT-116, ELISA; read-out: inhibition of NF-κB p65 signaling. Here is the method:
The Nrf-2 and NF-κB transcription factors in the nuclear extracts were detected using an Nrf-2 Transcription Assay Kit (Cayman Chemical, # 600590) and NF-κB (p65 and p50) Transcription Factor Assay Kit (Cayman Chemical, # 10007889 and # 10006912). Prior to assay performance, the nuclear extracts were generated using a Nuclear Extraction Kit (Cayman Chemical, # 10009277). The assay was performed according to the manufacturer’s instructions. For all kits, the nuclear extracts were incubated overnight at 4°C. Development was carried out for 15–20 min or until the wells turned medium to dark blue. Five minutes after the stop solution had been added, the absorbance was read at 450 nm using a plate reader.
The proteasome inhibitor MG132 ([Lee and Goldberg, 1998]) was used as a positive control, as proteasomal inhibition leads to stabilization of I-κB and thus inhibits the activation of the NF-κB signaling pathway. We used a MG132 incubation period of 4 h as longer incubations have been described to activate NF-κB signaling ([Lee et al., 2013]).
FIGURE 1 Effects of NFA on the NF-κB p65 and p50 signaling pathway in colorectal cancer cells. […] Incubation for 4 h with the proteasome inhibitor MG132 (1 µM) served as the positive control. […] Values are normalized to protein concentration and unstimulated vehicle control. Data are represented as mean ± SD of (A) n = 3 (DMSO, 16.9.9, 9NOA control of right panel, 18.4.4, 18.6.7, and 18.9.10), n = 4 (all other derivatives) and (B) n = 5. Statistical significance was calculated by one-way analysis of variance (ANOVA) with Bonferroni post-test. *p ≤ 0.03, **p ≤ 0.0021, ***p ≤ 0.0002, ****p ≤ 0.0001 were considered significant versus TNF-α treatment.

Another test has as its target T1, COX-2 (Homo sapiens, UniProt P35354).
T1 sequence (P35354 18-604): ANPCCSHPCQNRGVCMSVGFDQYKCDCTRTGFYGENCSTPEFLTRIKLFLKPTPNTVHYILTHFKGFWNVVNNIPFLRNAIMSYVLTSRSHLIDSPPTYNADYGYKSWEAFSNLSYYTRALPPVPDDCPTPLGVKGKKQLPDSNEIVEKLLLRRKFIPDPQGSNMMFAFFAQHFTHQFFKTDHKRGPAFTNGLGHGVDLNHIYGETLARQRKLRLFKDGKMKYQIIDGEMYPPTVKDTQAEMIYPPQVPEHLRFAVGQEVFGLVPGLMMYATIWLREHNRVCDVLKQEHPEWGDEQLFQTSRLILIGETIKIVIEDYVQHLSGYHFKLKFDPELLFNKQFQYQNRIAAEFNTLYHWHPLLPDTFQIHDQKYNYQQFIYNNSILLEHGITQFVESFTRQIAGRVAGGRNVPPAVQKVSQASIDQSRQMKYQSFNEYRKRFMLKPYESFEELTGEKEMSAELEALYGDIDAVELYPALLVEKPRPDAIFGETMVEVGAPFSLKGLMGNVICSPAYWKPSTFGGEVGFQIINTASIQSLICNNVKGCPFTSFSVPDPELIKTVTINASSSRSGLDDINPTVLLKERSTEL
Briefly: Recombinant COX-2 peroxidase activity assay. Details: purchased Cayman Chemicals #700100. It counts as biochemical. The settings on record: 30 min preincubation. Here is the method:
The effects of NFA on COX-2 activity were analyzed using a recombinant COX-2 activity assay using a COX Fluorescent Inhibitor Screening Assay Kit (Cayman Chemicals, #700100). The assay was performed according to the manufacturer’s instructions in a black 96-well microplate. Human COX-2 was pre-incubated with NFA and control inhibitors for 30 min at RT following the addition of ADHP (10-acetyl-3,5-dihydroxyphenoxazine) and AA. The mixture was incubated again for 2 min at RT, and the fluorescence was measured at excitation/emission wavelengths of 535/587 nm.
FIGURE 4 Effects of NFA on COX-2 peroxidase activity. […] Peroxidase activity was measured by the appearance of TMPD. Data are presented as the percent of the control mean ± SD, n = 4. Statistical significance was calculated by one-way ANOVA with Bonferroni post-test. **p ≤ 0.0021, ***p ≤ 0.0002, ****p ≤ 0.0001 are considered significant.

As for `CCCCCCCCCCCCC=C(CCCC(=O)O)[N+](=O)[O-]` [18.5.5, 5-nitro-octadec-5-enoic acid], the “COX-2 expression in IL-1β-stimulated A549 cells” value (shortened to “COX-2 expression”) with COX-2 expression is given as “highest effects”.
For orientation: inhibition means the drop in the measured response relative to a control, in per cent. For `CCCCCCCCCCC=C(CCCCCC(=O)O)[N+](=O)[O-]` [18.7.7, 7-nitro-octadec-7-enoic acid], the “COX-2 expression” value with COX-2 expression was “highest effects”. In addition, the “COX-2 gene expression in non-stimulated A549 cells” value in the test with COX-2 expression (without IL-1β) is reported as “clearly increased COX-2 gene expression”. The inhibition at 10 µM in the test on NF-κB p65 was roughly 90%.
Turning to `CCCCCCCCCC=C(CCCCCCC(=O)O)[N+](=O)[O-]` [18.8.8, 8-nitro-octadec-8-enoic acid], in the test on COX-2 expression, the “COX-2 expression” value is reported as “highest effects”. Further, in the test on NF-κB p65, the inhibition at 10 µM worked out at 50%.
In the case of `CCCCCCCCCC(=CCCCCCCC(=O)O)[N+](=O)[O-]` [18.8.9, 9-nitro-octadec-8-enoic acid], the inhibition at 10 µM in the test on NF-κB p65 was 50%.
Consider `CCCCCCCCC=C(CCCCCCCC(=O)O)[N+](=O)[O-]` [18.9.9, 9-nitro-octadec-9-enoic acid], for which the inhibition at 10 µM on COX-2 is greater than 65%; in the test on NF-κB p65, 50%.
Consider `CCCCCCCC=C(CCCCCCCCC(=O)O)[N+](=O)[O-]` [18.10.10, 10-nitro-octadec-10-enoic acid], for which the inhibition at 10 µM at COX-2 was greater than 90%.
Still for that read-out and setting: the value for `CCCCCCCCCCC=C(CCCCCCCC(=O)O)[N+](=O)[O-]` [20.9.9, 9-nitro-eicos-9-enoic acid] was greater than 85%.
`CCCCCCCC/C=C\CCCCCCCC(=O)O` [OA, oleic acid, reference compound]: the “inhibition of recombinant COX-2 peroxidase activity” value on COX-2 (10 µM) is given as “only weakly affected”.
